Assay results from ChEMBL document CHEMBL3525951, “Reevaluation of the microsomal metabolism of montelukast: major contribution by CYP2C8 at clinically relevant concentrations” (Drug Metab Dispos, 2011).

T1: Cytochrome P450 2C8 (Homo sapiens, UniProt P10632)
T1 sequence (P10632 whole entry): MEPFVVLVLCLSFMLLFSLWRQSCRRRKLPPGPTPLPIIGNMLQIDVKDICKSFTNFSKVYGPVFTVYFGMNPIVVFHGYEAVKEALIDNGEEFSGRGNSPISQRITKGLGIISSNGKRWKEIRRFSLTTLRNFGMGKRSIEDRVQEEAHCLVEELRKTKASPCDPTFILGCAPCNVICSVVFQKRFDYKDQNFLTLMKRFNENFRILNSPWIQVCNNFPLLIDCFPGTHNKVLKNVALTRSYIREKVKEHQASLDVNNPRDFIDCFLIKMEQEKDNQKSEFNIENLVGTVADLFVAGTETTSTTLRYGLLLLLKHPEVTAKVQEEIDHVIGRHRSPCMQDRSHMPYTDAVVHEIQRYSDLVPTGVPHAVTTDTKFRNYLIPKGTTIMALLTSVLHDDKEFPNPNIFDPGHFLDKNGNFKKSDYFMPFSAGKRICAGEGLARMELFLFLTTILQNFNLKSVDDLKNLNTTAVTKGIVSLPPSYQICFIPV

T2: Cytochrome P450 2B6 (Homo sapiens, UniProt P20813)
T2 sequence (P20813 whole entry): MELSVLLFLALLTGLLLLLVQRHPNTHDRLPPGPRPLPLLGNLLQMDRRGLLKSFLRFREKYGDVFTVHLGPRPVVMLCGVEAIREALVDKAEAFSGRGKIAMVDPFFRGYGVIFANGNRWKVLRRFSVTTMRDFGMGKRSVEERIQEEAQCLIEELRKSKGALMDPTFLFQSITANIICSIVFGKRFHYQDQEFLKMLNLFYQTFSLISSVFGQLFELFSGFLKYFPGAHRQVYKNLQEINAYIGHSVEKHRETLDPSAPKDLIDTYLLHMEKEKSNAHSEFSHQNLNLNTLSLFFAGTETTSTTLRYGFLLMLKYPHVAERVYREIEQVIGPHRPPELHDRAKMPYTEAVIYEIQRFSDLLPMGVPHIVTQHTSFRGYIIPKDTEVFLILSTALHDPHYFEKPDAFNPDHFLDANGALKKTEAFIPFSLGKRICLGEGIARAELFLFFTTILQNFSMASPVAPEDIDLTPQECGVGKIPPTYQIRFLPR

T3: Cytochrome P450 2A6 (Homo sapiens, UniProt P11509)
T3 sequence (P11509 whole entry): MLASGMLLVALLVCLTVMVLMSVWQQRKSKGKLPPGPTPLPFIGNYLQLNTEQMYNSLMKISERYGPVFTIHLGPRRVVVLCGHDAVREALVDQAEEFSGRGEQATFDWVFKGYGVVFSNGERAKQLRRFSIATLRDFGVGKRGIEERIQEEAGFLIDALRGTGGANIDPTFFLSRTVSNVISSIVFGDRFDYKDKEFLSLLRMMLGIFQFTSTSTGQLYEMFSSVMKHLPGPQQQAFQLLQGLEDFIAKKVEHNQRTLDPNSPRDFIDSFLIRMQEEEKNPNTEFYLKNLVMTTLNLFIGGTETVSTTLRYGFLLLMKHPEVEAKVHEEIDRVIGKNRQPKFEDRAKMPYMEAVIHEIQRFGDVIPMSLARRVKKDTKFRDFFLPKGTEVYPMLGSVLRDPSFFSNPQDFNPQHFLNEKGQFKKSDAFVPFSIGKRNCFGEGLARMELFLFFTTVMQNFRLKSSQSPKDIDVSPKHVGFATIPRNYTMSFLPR

T4: Cytochrome P450 1A2 (Homo sapiens, UniProt P05177)
T4 sequence (P05177 whole entry): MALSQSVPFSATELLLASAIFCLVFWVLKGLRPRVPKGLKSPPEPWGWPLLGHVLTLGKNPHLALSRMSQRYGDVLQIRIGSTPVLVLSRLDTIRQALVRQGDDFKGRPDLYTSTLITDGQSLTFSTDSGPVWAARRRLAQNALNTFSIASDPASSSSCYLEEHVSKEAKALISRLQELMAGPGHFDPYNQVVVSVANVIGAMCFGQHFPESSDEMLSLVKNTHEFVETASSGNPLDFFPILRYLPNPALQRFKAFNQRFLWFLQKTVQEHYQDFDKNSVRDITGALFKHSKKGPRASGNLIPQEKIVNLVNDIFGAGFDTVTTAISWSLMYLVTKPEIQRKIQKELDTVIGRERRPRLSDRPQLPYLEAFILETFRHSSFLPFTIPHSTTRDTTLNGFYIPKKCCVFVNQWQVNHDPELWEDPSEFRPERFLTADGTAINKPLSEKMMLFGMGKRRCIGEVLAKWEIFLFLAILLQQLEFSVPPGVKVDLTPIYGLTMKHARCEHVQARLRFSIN


Legend:
Liver microsome = assay: Drug level in human liver microsomes treated with montelukast at 0.02 to 0.4 uM preincubated for 3 mins followed by beta-NADPH addition by LC-MS analysis; format: ADME
Cytochrome P450 3A5 [1] = molecular target: T5, Cytochrome P450 3A5 (Homo sapiens, UniProt P20815); assay: Activity of recombinant human CYP3A5 expressed in microsomes isolated from baculovirus infected insect cell assessed as enzyme-mediated compound formation treated with montelukast at 1 uM after 60 mins by LC-MS analysis; format: ADME; details: 1 h
Cytochrome P450 3A4 [2] = molecular target: T6, Cytochrome P450 3A4 (Homo sapiens, UniProt P08684); assay: Activity of recombinant human CYP3A4 expressed in microsomes isolated from baculovirus infected insect cell assessed as enzyme-mediated compound formation treated with montelukast at 1 uM after 60 mins by LC-MS analysis; format: ADME; details: 1 h
Cytochrome P450 2C8 [3] = molecular target: T1, Cytochrome P450 2C8; assay: Activity of recombinant human CYP2C8 expressed in microsomes isolated from baculovirus infected insect cell assessed as enzyme-mediated compound formation treated with 2-(1-(((1R)-1-(3-(2-(7-chloroquinolin-2-yl)vinyl)phenyl)-3-(2-(1,2-dihydroxypropan-2-yl)phenyl)propylthio)methyl)cyclopropyl)acetic acid at 0.02 uM after 30 mins by LC-MS analysis; format: ADME; details: 0.5 h
Cytochrome P450 2C8 [4] = molecular target: T1, Cytochrome P450 2C8; assay: Activity of recombinant human CYP2C8 expressed in microsomes isolated from baculovirus infected insect cell assessed as enzyme-mediated compound formation treated with montelukast at 0.02 to 0.1 uM after 3 mins by LC-MS analysis; format: ADME; details: 0.05 h
Cytochrome P450 2C19 [5] = molecular target: T7, Cytochrome P450 2C19 (Homo sapiens, UniProt P33261); assay: Activity of recombinant human CYP2C19 expressed in microsomes isolated from baculovirus infected insect cell assessed as enzyme-mediated compound formation treated with montelukast at 1 uM after 60 mins by LC-MS analysis; format: ADME; details: 1 h
Cytochrome P450 2C9 [6] = molecular target: T8, Cytochrome P450 2C9 (Homo sapiens, UniProt P11712); assay: Activity of recombinant human CYP2C9 expressed in microsomes isolated from baculovirus infected insect cell assessed as enzyme-mediated compound formation treated with montelukast at 1 uM after 60 mins by LC-MS analysis; format: ADME; details: 1 h
Cytochrome P450 2C8 [7] = molecular target: T1, Cytochrome P450 2C8; assay: Activity of recombinant human CYP2C8 expressed in microsomes isolated from baculovirus infected insect cell assessed as enzyme-mediated compound formation treated with montelukast at 0.02 to 1 uM after 60 mins by LC-MS analysis; format: ADME; details: 1 h
Cytochrome P450 2B6 = molecular target: T2, Cytochrome P450 2B6; assay: (§1) Activity of recombinant human CYP2B6 expressed in microsomes isolated from baculovirus infected insect cell assessed as enzyme-mediated 2-(2-((R)-3-((1-(carboxymethyl)cyclopropyl)methylthio)-3-(3-(2-(7-chloroquinolin-2-yl)vinyl)phenyl)propyl)phenyl)-2-hydroxypropanoic acid formation at 1 uM after 30 mins by LC-MS analysis; format: ADME; details: 0.5 h
Cytochrome P450 2C9 [8] = molecular target: T8, Cytochrome P450 2C9; assay: Activity of recombinant human CYP2C9 expressed in microsomes isolated from baculovirus infected insect cell assessed as enzyme-mediated compound formation treated with montelukast at 0.02 to 0.1 uM after 12 mins by LC-MS analysis; format: ADME; details: 0.2 h
Cytochrome P450 2C8 [9] = molecular target: T1, Cytochrome P450 2C8; assay: as §1, with “human CYP2C8” for “human CYP2B6”, “at 0.02” for “at 1”; format: ADME; details: 0.5 h
Cytochrome P450 2A6 = molecular target: T3, Cytochrome P450 2A6; assay: as §1, with “CYP2A6” for “CYP2B6”; format: ADME; details: 0.5 h
Cytochrome P450 2C19 [10] = molecular target: T7, Cytochrome P450 2C19; assay: as §1, with “CYP2C19” for “CYP2B6”; format: ADME; details: 0.5 h
Cytochrome P450 2C9 [11] = molecular target: T8, Cytochrome P450 2C9; assay: as §1, with “human CYP2C9” for “human CYP2B6”, “at 0.02” for “at 1”; format: ADME; details: 0.5 h
Cytochrome P450 3A5 [12] = molecular target: T5, Cytochrome P450 3A5; assay: as §1, with “CYP3A5” for “CYP2B6”; format: ADME; details: 0.5 h
Cytochrome P450 3A4 [13] = molecular target: T6, Cytochrome P450 3A4; assay: as §1, with “human CYP3A4” for “human CYP2B6”, “at 0.02” for “at 1”; format: ADME; details: 0.5 h
Cytochrome P450 2E1 = Cytochrome P450 2E1 (Homo sapiens, UniProt P05181); assay: as §1, with “CYP2E1” for “CYP2B6”; format: ADME; details: 0.5 h
Cytochrome P450 1A2 = molecular target: T4, Cytochrome P450 1A2; assay: as §1, with “CYP1A2” for “CYP2B6”; format: ADME; details: 0.5 h
Cytochrome P450 2D6 = Cytochrome P450 2D6 (Homo sapiens, UniProt P10635); assay: as §1, with “CYP2D6” for “CYP2B6”; format: ADME; details: 0.5 h
[14] = substrate: CC(C)(O)c1ccccc1CC[C@@H](SCC1(CC(=O)O)CC1)c1cccc(/C=C/c2ccc3ccc(Cl)cc3n2)c1; assay: cells, lysate or membranes named

T5 sequence (P20815 whole entry): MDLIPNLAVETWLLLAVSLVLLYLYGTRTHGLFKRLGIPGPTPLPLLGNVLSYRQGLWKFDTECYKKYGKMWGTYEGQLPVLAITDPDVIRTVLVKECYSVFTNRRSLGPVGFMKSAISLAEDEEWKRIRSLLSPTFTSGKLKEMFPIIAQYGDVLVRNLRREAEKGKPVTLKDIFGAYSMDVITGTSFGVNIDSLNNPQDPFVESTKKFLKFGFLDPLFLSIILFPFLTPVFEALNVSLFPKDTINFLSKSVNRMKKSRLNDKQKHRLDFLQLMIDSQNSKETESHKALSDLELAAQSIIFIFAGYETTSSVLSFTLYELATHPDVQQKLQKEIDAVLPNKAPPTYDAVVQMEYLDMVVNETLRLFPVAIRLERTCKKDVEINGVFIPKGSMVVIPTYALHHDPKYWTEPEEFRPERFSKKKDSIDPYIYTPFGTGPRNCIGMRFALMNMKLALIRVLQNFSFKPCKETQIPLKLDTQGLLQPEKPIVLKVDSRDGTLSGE
T6 sequence (P08684 whole entry): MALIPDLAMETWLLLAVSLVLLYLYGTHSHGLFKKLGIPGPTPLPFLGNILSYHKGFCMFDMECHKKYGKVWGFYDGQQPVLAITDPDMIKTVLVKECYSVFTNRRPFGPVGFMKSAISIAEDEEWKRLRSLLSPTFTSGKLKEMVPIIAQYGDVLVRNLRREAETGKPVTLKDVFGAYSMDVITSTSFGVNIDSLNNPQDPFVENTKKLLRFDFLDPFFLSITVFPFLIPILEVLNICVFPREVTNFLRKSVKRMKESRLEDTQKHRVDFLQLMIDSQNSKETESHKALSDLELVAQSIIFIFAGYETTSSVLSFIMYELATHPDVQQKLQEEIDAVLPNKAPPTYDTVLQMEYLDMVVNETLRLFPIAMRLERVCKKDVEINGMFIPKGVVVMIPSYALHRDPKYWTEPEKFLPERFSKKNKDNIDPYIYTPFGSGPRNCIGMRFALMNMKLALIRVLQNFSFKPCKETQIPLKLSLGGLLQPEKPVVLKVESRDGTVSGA
T7 sequence (P33261 whole entry): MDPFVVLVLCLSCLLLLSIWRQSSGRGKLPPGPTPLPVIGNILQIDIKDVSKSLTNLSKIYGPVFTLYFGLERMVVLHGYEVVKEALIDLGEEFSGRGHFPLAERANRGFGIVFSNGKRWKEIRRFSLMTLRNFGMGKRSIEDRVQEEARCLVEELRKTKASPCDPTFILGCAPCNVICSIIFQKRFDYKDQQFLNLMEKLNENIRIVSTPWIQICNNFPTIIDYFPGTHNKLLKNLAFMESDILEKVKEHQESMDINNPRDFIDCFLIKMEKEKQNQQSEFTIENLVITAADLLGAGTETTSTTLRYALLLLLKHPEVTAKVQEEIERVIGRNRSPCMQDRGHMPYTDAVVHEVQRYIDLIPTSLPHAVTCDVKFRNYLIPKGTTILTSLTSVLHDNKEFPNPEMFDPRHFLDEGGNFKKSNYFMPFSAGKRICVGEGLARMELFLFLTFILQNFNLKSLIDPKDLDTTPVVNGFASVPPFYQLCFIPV
Sequence of Cytochrome P450 2D6 (P10635 whole entry): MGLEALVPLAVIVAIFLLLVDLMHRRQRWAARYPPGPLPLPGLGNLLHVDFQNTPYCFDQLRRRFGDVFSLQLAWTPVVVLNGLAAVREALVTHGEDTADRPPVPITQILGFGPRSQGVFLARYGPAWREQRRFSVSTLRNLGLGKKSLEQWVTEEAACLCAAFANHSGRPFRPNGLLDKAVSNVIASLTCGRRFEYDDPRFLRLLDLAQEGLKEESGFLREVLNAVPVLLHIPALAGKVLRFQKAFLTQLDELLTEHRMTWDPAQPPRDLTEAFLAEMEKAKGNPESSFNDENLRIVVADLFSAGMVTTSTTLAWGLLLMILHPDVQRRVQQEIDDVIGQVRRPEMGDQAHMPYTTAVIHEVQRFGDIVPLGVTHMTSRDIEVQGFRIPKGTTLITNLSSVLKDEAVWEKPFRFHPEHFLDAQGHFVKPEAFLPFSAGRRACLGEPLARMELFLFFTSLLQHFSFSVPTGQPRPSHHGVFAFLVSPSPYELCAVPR
Sequence of Cytochrome P450 2E1 (P05181 whole entry): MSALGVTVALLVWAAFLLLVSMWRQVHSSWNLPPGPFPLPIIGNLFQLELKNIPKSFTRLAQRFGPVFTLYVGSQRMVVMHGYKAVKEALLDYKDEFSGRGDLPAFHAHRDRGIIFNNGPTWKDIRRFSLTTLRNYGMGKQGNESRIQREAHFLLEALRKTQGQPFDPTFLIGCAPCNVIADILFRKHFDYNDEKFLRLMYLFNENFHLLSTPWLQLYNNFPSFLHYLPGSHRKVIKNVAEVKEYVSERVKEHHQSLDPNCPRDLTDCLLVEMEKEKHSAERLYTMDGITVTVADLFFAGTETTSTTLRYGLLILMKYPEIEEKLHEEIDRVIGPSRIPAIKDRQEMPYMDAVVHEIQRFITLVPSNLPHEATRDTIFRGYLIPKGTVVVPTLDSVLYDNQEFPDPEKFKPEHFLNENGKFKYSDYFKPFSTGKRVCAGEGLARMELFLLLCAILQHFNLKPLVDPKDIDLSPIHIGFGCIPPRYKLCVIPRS

Molecule	Drug metabolism (Liver microsome)	Drug metabolism (Cytochrome P450 3A5 [1])	Drug metabolism (Cytochrome P450 3A4 [2])	Drug metabolism (Cytochrome P450 2C8 [4])	Drug metabolism (Cytochrome P450 2C9 [6])	Drug metabolism (Cytochrome P450 2C8 [7])	also measured
CC(C)(O)c1ccccc1CC[C@H](c1cccc(/C=C/c2ccc3ccc(Cl)cc3n2)c1)[S+]([O-])CC1(CC(=O)O)CC1 (stereo not given in full)	metabolite_detected						
CC(C)(O)c1ccccc1C(O)C[C@@H](SCC1(CC(=O)O)CC1)c1cccc(/C=C/c2ccc3ccc(Cl)cc3n2)c1 (stereo not given in full)	metabolite_detected	metabolite_detected	metabolite_detected				
CC(O)(C(=O)O)c1ccccc1CC[C@@H](SCC1(CC(=O)O)CC1)c1cccc(/C=C/c2ccc3ccc(Cl)cc3n2)c1 (stereo not given in full)	metabolite_detected						Drug metabolism (Cytochrome P450 2C8 [3]): metabolite_detected
CC(C)(O)c1cc(O)ccc1CC[C@@H](SCC1(CC(=O)O)CC1)c1cccc(/C=C/c2ccc3ccc(Cl)cc3n2)c1	metabolite_detected	metabolite_detected	metabolite_detected	metabolite_detected	metabolite_detected	metabolite_detected	Drug metabolism (Cytochrome P450 2C19 [5]): metabolite_detected
CC(O)(CO)c1ccccc1CC[C@@H](SCC1(CC(=O)O)CC1)c1cccc(/C=C/c2ccc3ccc(Cl)cc3n2)c1 (stereo not given in full)	metabolite_detected			metabolite_detected	metabolite_detected	metabolite_detected	Drug metabolism (Cytochrome P450 2B6): metabolite_not_detected; Drug metabolism (Cytochrome P450 2C9 [8]): metabolite_detected; Drug metabolism (Cytochrome P450 2C8 [9]): metabolite_detected; Drug metabolism (Cytochrome P450 2A6): metabolite_not_detected; Drug metabolism (Cytochrome P450 2C19 [10]): metabolite_not_detected; Drug metabolism (Cytochrome P450 2C9 [11]): metabolite_not_detected; Drug metabolism (Cytochrome P450 3A5 [12]): metabolite_not_detected; Drug metabolism (Cytochrome P450 3A4 [13]): metabolite_not_detected; Drug metabolism (Cytochrome P450 2E1): metabolite_not_detected; Drug metabolism (Cytochrome P450 1A2): metabolite_not_detected; Drug metabolism (Cytochrome P450 2D6): metabolite_not_detected
Cytochrome P450 2C9 (Homo sapiens) (protein) MDSLVVLVLCLSCLLLLSLWRQSSGRGKLPPGPTPLPVIGNILQIGIKDISKSLTNLSKVYGPVFTLYFGLKPIVVLHGYEAVKEALIDLGEEFSGRGIFPLAERANRGFGIVFSNGKKWKEIRRFSLMTLRNFGMGKRSIEDRVQEEARCLVEELRKTKASPCDPTFILGCAPCNVICSIIFHKRFDYKDQQFLNLMEKLNENIKILSSPWIQICNNFSPIIDYFPGTHNKLLKNVAFMKSYILEKVKEHQESMDMNNPQDFIDCFLMKMEKEKHNQPSEFTIESLENTAVDLFGAGTETTSTTLRYALLLLLKHPEVTAKVQEEIERVIGRNRSPCMQDRSHMPYTDAVVHEVQRYIDLLPTSLPHAVTCDIKFRNYLIPKGTTILISLTSVLHDNKEFPNPEMFDPHHFLDEGGNFKKSKYFMPFSAGKRICVGEALAGMELFLFLTSILQNFNLKSLVDPKNLDTTPVVNGFASVPPFYQLCFIPV							Km [14]: 0.19 µM; Vmax [14]: 1.1e-07 µmol/min
